Results taken from patent US20110281928A1, “Process for the preparation of zofenopril and its pharmaceutically acceptable salts thereof” (GLENMARK GENERICS LTD, priority 2009, published 2011).
Structures can show the parent of a compound that is named as a salt.

Legend:
Format in all cases: physicochemical
[1] = Particle size distribution by laser diffraction
Text: The D10, D50, and D90 values are useful ways for indicating a particle size distribution. D90 is a size value where at least 90 percent of the particles have a size smaller than the stated value. Likewise D10 refers to 10 percent of the particles having a size smaller than the stated value. D50 refers to at least 50 percent of the particles having a size smaller than the stated value and D [4,3] value refers to a mean particle size. Methods for determining D10, D50, D90 and D [4,3] include those using laser light diffraction with equipment sold by Malvern Instruments ltd.
As used herein, “crystalline particles” means any combination of single crystals, aggregates and agglomerates. As used herein “Particle Size Distribution (P.S.D.)” means the cumulative volume size distribution of equivalent spherical diameters as determined by laser diffraction at 1 bar dispersive pressure in a SympatecHelos equipment. “Mean particle size distribution, i.e., d (0.5)” correspondingly, means the median of said particle size distribution.

[2] = Specific surface area by B.E.T. nitrogen absorption
Text: Specific surface area is defined in units of square meters per gram (m^2/g). It is usually measured by nitrogen absorption analysis. In this analysis, nitrogen is absorbed on the surface of the substance. The amount of the absorbed nitrogen (as measured during the absorption or the subsequent desorption process) is related to the surface area via a formula known as the B. ET. formula. BET Surface Area Analyser Model SAA-2000, specifically designed for BET_Surface Area Analysis.
The Specific Surface Area is expressed in meters square per gram of a sample. It is a measure of area covered by Nitrogen gas adsorbed in a mono-layer form.

[3] = Bulk and tapped density; settings: Example 5 product
[4] = Solubility in organic solvents (statement)

## C[C@H](CSC(=O)c1ccccc1)C(=O)N1C[C@@H](Sc2ccccc2)C[C@H]1C(=O)O [zofenopril calcium, (4S)-N-[3-(Benzoylsulfanyl)-2(S)-methylpropionyl]-4-(phenylsulfanyl)-L-proline calcium salt]
[1]; Example 5 product
  Particle size distribution d 10: 3.902 μ
  Particle size distribution d 50: 12.088 μ
  Particle size distribution d90: 33.858 μ
[1]; crystal particles, description
  Mean particle size distribution d (0.5): 12.088 μm
  Particle size distribution d (0.1): 3.902 μm
  Particle size distribution d (0.9): 33.858 μm
[2]; Example 5 product
  Specific surface area by B.E.T: 14.13 m^2/g
[2]; crystal particles, description
  Specific surface area, as measured by B.E.T.: about 14.13 m^2/gm
[3]
  Bulk density (Tapped): 0.282 gm/ml
  Bulk density (untapped): 0.201 gm/ml
[4]
  Solubility in organic solvents: insoluble
